Test results reported in paper PMC12638379, “An innovative approach to development of new pyrazolylquinolin-2-one hybrids as dual EGFR and BRAF^V600E inhibitors” (Molecular Diversity, 2025).
Like-named read-outs stand apart in the source and are kept apart here.

System: NCI 60 cancer cell lines
Assay: NCI anticancer screening over a panel of 60 cancer cells, single concentration 10 µM
Format: cell-based, human
Details: Homo sapiens, read-out: % Growth Inhibition (GI %)
Method: Ten final compounds 4a–j and five intermediates 2a–e have been selected by the National Cancer Institute (NCI) for anticancer screening over a panel of 60 cancer cells that cover a variety of histological tissues, including the central nervous system, leukemia, lung, colon, kidney, ovary, breast, and prostate, using the protocol established by the National Cancer Institute (NCI). In a primary screening, each compound was screened at a concentration of 10 µM.
Compounds 2a-e and 4a-j were selected by the National Cancer Institute (NCI) according to the protocol of the Compound Evaluation Branch of the National Cancer Institute, Bethesda, USA, for in vitro anticancer screening which refers in turn to apoptotic activity. The methodology of the NCI anticancer screening has been described in detail elsewhere (http://www.dtp.nci.nih.gov).

Q: `COc1ccc2[nH]c(=O)cc(-n3ncc(/C(C)=N/Nc4ccc(S(N)(=O)=O)cc4)c3C)c2c1` [Compound 4c, (E)-4-(2-(1-(1-(6-methoxy-2-oxo-1,2-dihydroquinolin-4-yl)-5-methyl-1H-pyrazol-4-yl)ethylidene)hydrazineyl)benzenesulfonamide] was tested. Which inhibition at 10 µM (786-0, Renal cancer 786-0, 10 μM) did it give?
A: < 5%

Q: What about the inhibition at 10 µM (A498, Renal cancer A498, 10 μM) of the same compound?
A: 7.1%

Q: And the inhibition at 10 µM (A549, Non-small cell lung cancer A549/ATCC, 10 μM)?
A: < 5%

Q: What about the inhibition at 10 µM (ACHN, Renal cancer ACHN, 10 μM) of the same compound?
A: < 5%

Q: And the inhibition at 10 µM (BT-549, Breast cancer BT-549, 10 μM)?
A: < 5%

Q: And the inhibition at 10 µM (CAKI-1, Renal cancer CAKI-1, 10 μM)?
A: < 5%

Q: And the inhibition at 10 µM (CCRF-CEM, Leukemia CCRF-CEM, 10 μM)?
A: < 5%

Q: What about the inhibition at 10 µM (COLO 205, Colon cancer COLO 205, 10 μM) of the same compound?
A: < 5%

Q: What about the inhibition at 10 µM (DU-145, Prostate cancer DU-145, 10 μM) of the same compound?
A: < 5%

Q: And the inhibition at 10 µM (HCC 2998, Colon cancer HCC-2998, 10 μM)?
A: < 5%

Q: What about the inhibition at 10 µM (HCT-116, Colon cancer HCT-116, 10 μM) of the same compound?
A: < 5%

Q: What about the inhibition at 10 µM (HL-60, Leukemia HL-60(TB), 10 μM) of the same compound?
A: < 5%

Q: And the inhibition at 10 µM (HOP-92, Non-small cell lung cancer HOP-92, 10 μM)?
A: < 5%

Q: And the inhibition at 10 µM (HT-29, Colon cancer HT29, 10 μM)?
A: < 5%

Q: And the inhibition at 10 µM (IGROV-1, Ovarian cancer IGROV1, 10 μM)?
A: < 5%

Q: And the inhibition at 10 µM (K562, Leukemia K-562, 10 μM)?
A: < 5%

Q: What about the inhibition at 10 µM (KM12, Colon cancer KM12, 10 μM) of the same compound?
A: < 5%

Q: And the inhibition at 10 µM (Leukemia SR, 10 μM)?
A: 13%

Q: And the inhibition at 10 µM (MCF7, Breast cancer MCF7, 10 μM)?
A: 6.69%

Q: And the inhibition at 10 µM (MDA-MB-231, Breast cancer MDA-MB-231/ATCC, 10 μM)?
A: 8.98%

Q: And the inhibition at 10 µM (MDA-MB-435, Melanoma MDA-MB-435, 10 μM)?
A: < 5%

Q: And the inhibition at 10 µM (MDA-MB-468, Breast cancer MDA-MB-468, 10 μM)?
A: 7.22%

Q: And the inhibition at 10 µM (MOLT-4, Leukemia MOLT-4, 10 μM)?
A: < 5%

Q: What about the inhibition at 10 µM (Melanoma M14, 10 μM) of the same compound?
A: < 5%

Q: And the inhibition at 10 µM (Melanoma MALM-3M, 10 μM)?
A: 10.6%

Q: What about the inhibition at 10 µM (NCI-H23, Non-small cell lung cancer NCI-H23, 10 μM) of the same compound?
A: 6%

Q: What about the inhibition at 10 µM (NCI-H226, Non-small cell lung cancer NCI-H226, 10 μM) of the same compound?
A: 8.4%

Q: What about the inhibition at 10 µM (NCI-H460, Non-small cell lung cancer NCI-H460, 10 μM) of the same compound?
A: < 5%

Q: And the inhibition at 10 µM (NCI-H522, Non-small cell lung cancer NCI-H522, 10 μM)?
A: 11.8%

Q: And the inhibition at 10 µM (OVCAR-3, Ovarian cancer OVCAR-3, 10 μM)?
A: < 5%

Q: What about the inhibition at 10 µM (OVCAR-4, Ovarian cancer OVCAR-4, 10 μM) of the same compound?
A: < 5%

Q: And the inhibition at 10 µM (OVCAR-5, Ovarian cancer OVCAR-5, 10 μM)?
A: < 5%

Q: What about the inhibition at 10 µM (OVCAR-8, Ovarian cancer OVCAR-8, 10 μM) of the same compound?
A: < 5%

Q: What about the inhibition at 10 µM (Prostate cancer PC-3, 10 μM) of the same compound?
A: < 5%

Q: And the inhibition at 10 µM (RPMI-8226, Leukemia RPMI-8226, 10 μM)?
A: < 5%

Q: What about the inhibition at 10 µM (RXF 393, Renal cancer RXF 393, 10 μM) of the same compound?
A: 6.12%

Q: What about the inhibition at 10 µM (SF-268, CNS Cancer SF-268, 10 μM) of the same compound?
A: < 5%

Q: What about the inhibition at 10 µM (SF-295, CNS Cancer SF-295, 10 μM) of the same compound?
A: 10.5%

Q: And the inhibition at 10 µM (SF-539, CNS Cancer SF-539, 10 μM)?
A: 5.07%

Q: What about the inhibition at 10 µM (SK-MEL-2, Melanoma SK-MEL-2, 10 μM) of the same compound?
A: < 5%

Q: And the inhibition at 10 µM (SK-MEL-5, Melanoma SK-MEL-5, 10 μM)?
A: < 5%

Q: And the inhibition at 10 µM (SK-MEL-28, Melanoma SK-MEL-28, 10 μM)?
A: < 5%

Q: And the inhibition at 10 µM (SK-OV-3, Ovarian cancer SK-OV-3, 10 μM)?
A: < 5%

Q: What about the inhibition at 10 µM (SN12C, Renal cancer SN12C, 10 μM) of the same compound?
A: 8.13%

Q: And the inhibition at 10 µM (SNB-19, CNS Cancer SNB-19, 10 μM)?
A: 5.89%

Q: What about the inhibition at 10 µM (SNB-75, CNS Cancer SNB-75, 10 μM) of the same compound?
A: < 5%

Q: What about the inhibition at 10 µM (SW-620, Colon cancer SW-620, 10 μM) of the same compound?
A: < 5%

Q: And the inhibition at 10 µM (T47D, Breast cancer T-47D, 10 μM)?
A: 12.1%

Q: And the inhibition at 10 µM (TK-10, Renal cancer TK-10, 10 μM)?
A: < 5%

Q: And the inhibition at 10 µM (U-251, CNS Cancer U251, 10 μM)?
A: < 5%

Q: What about the inhibition at 10 µM (UACC-62, Melanoma UACC-62, 10 μM) of the same compound?
A: 5.15%

Q: And the inhibition at 10 µM (UACC-257, Melanoma UACC-257, 10 μM)?
A: < 5%

Q: What about the inhibition at 10 µM (UO-31, Renal cancer UO-31, 10 μM) of the same compound?
A: 12.9%
